Measured values reported in patent US20250197420A1, “MACROCYCLIC COMPOUNDS, COMPOSITIONS, AND METHODS OF USING THEREOF” (Sionna Therapeutics Inc., priority 2022, published 2025).

Columns and labels:
[1] = test system: Primary human bronchial epithelial cells from a ΔF508 homozygous CF donor (CF-HBE cells); assay: TECC24 recording of CFTR-mediated transepithelial chloride transport, AUC fold over benchmark VX-809 @10 μM; type: cell-based; details: 48 hours incubation, AUC of forskolin-stimulated IEQ
Method in brief: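 CF-HBE cells on inserts were treated with compound for 48 h at 36.5 °C, then recorded in current-clamp with benzamil 10 μM, forskolin 10 μM, and finally CFTR inhibitor-172 20 μM in pH 7.4 Hepes saline. Equivalent Cl− current AUC between forskolin and inhibitor addition is expressed as a ratio to VX-809 AUC: A <3, B 3–6, C 6–20.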

[2] = molecular target: T1, Purified recombinant NBD1 (Homo sapiens, UniProt P13569); assay: Aggregation analysis using differential static light scattering (DSLS): thermal stability of NBD1; type: binding; details: NBD1 0.2 mg/ml; Tagg of compound well minus average Tagg of DMSO control wells
T1 construct: Purified recombinant NBD1 was produced using previously described methods; made in house
Method in brief: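 Recombinant NBD1 at 0.2 mg/ml in Tris/NaCl/MgCl2 buffer with 2 mM ATP, 2 mM DTT, 1% glycerol, pH 7.6, was incubated with compound and heated at 1 °C/min to 70 °C while static light scattering was monitored. Tagg was taken from the curve inflection point and reported as ΔTagg relative to DMSO controls.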

T1 sequence (P13569 423-646 limits assumed): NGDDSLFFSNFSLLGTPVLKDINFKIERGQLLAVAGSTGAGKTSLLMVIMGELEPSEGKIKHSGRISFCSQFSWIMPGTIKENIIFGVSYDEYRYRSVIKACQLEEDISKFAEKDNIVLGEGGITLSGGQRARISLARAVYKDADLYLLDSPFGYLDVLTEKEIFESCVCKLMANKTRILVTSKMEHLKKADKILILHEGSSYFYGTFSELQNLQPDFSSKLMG

SMILES | TECC (test agent AUC divided by VX-809 AUC) [1] | DSLS (ΔTagg) [2]
CN1CC(C)(C)CCCC(C)(c2cccc(CCC(=O)O)c2)c2cnc([nH]2)-c2cc(ccc2F)Oc2c(F)cc3[nH]cnc3c2CCC1=O (single isomer, unassigned) [Compound 72B, 3-[3-(23,29-difluoro-6,10,10,12-tetramethyl-13-oxo-25-oxa-3,12,18,20,31-pentazapentacyclo-[24.3.1.12,5.016,24.017,21]hentriaconta-1(30),2,4,16,18,21,23,26,28-nonaen-6-yl)phenyl]propanoic acid] | A (a TECC value less than 3 is marked “A”) | B (a value above 5 °C and less than or equal to 10 °C is marked “B”)
CN1CC(C)(C)CCC(C)(c2cccc(CCC(=O)O)c2)c2nc(n(C)n2)-c2cc(ccc2F)Oc2c(F)cc3[nH]ccc3c2CCC1=O (single isomer, unassigned) [Compound 75A, 3-[3-(22,28-difluoro-3,6,9,9,11-pentamethyl-12-oxo-24-oxa-3,4,11,19,30-pentazapentacyclo[23.3.1.12,5.015,23.016,20]triaconta-1(29),2(30),4,15,17,20,22,25,27-nonaen-6-yl)phenyl]propanoic acid] | B (a value between 3 and 6 is marked “B”) | B (a value above 5 °C and less than or equal to 10 °C is marked “B”)
CN1CC(C)(C)CCC(C)(c2cccc(CCC(=O)O)c2)c2nc(n(C)n2)-c2cc(ccc2F)Oc2c(F)cc3[nH]ccc3c2CCC1=O (single isomer, unassigned) [Compound 75B, 3-[3-(22,28-difluoro-3,6,9,9,11-pentamethyl-12-oxo-24-oxa-3,4,11,19,30-pentazapentacyclo[23.3.1.12,5.015,23.016,20]triaconta-1(29),2(30),4,15,17,20,22,25,27-nonaen-6-yl)phenyl]propanoic acid] | A (a TECC value less than 3 is marked “A”) | A (an ΔTagg value less than or equal to 5 °C is marked “A”)
[2H]C([2H])([2H])n1nc2nc1-c1cc(ccc1F)Oc1c(F)cc3[nH]ccc3c1CCC(=O)NCC(C)(C)CCCC2(C)c1cccc(CCC(=O)O)c1 (single isomer, unassigned) [Compound 76A, 3-[3-[23,29-difluoro-6,10,10-trimethyl-13-oxo-3-(trideuteriomethyl)-25-oxa-3,4,12,20,31-pentazapentacyclo[24.3.1.12,5.016,24.017,21]hentriaconta-1(30),2(31),4,16,18,21,23,26,28-nonaen-6-yl]phenyl]propanoic acid] | A (a TECC value less than 3 is marked “A”) | A (an ΔTagg value less than or equal to 5 °C is marked “A”)
[2H]C([2H])([2H])n1nc2nc1-c1cc(ccc1F)Oc1c(F)cc3[nH]ccc3c1CCC(=O)NCC(C)(C)CCCC2(C)c1cccc(CCC(=O)O)c1 (single isomer, unassigned) [Compound 76B, 3-[3-[23,29-difluoro-6,10,10-trimethyl-13-oxo-3-(trideuteriomethyl)-25-oxa-3,4,12,20,31-pentazapentacyclo[24.3.1.12,5.016,24.017,21]hentriaconta-1(30),2(31),4,16,18,21,23,26,28-nonaen-6-yl]phenyl]propanoic acid] | C (a value between 6 and 20 is marked “C”) | C (a value greater than 10 °C and less than or equal to 25 °C is marked “C”)
[2H]C([2H])([2H])n1nc2nc1-c1cc(ccc1F)Oc1c(F)cc3[nH]ccc3c1CCC(=O)N(C)CC(C)(C)CCCC2(C)c1cccc(CCC(=O)O)c1 (single isomer, unassigned) [Compound 77A, 3-[3-[23,29-difluoro-6,10,10,12-tetramethyl-13-oxo-3-(trideuteriomethyl)-25-oxa-3,4,12,20,31-pentazapentacyclo[24.3.1.12,5.016,24.017,21]-hentriaconta-1(30),2(31),4,16,18,21,23,26,28-nonaen-6-yl]phenyl]propanoic acid] | C (a value between 6 and 20 is marked “C”) | C (a value greater than 10 °C and less than or equal to 25 °C is marked “C”)
[2H]C([2H])([2H])n1nc2nc1-c1cc(ccc1F)Oc1c(F)cc3[nH]ccc3c1CCC(=O)N(C)CC(C)(C)CCCC2(C)c1cccc(CCC(=O)O)c1 (single isomer, unassigned) [Compound 77B, 3-[3-[23,29-difluoro-6,10,10,12-tetramethyl-13-oxo-3-(trideuteriomethyl)-25-oxa-3,4,12,20,31-pentazapentacyclo[24.3.1.12,5.016,24.017,21]-hentriaconta-1(30),2(31),4,16,18,21,23,26,28-nonaen-6-yl]phenyl]propanoic acid] | A (a TECC value less than 3 is marked “A”) | A (an ΔTagg value less than or equal to 5 °C is marked “A”)
[2H]C([2H])([2H])n1nc2nc1-c1cc(ccc1F)Oc1c(F)cc3[nH]ccc3c1CCC(=O)N(C)CC(C)(C)CCCC2(C)c1cccc(CCC(=O)NS(C)(=O)=O)c1 (single isomer, unassigned) [Compound 79A, 3-[3-[23,29-difluoro-6,10,10,12-tetramethyl-13-oxo-3-(trideuteriomethyl)-25-oxa-3,4,12,20,31-pentazapentacyclo[24.3.1.12,5.016,24.017,21]hentriaconta-1(30),2(31),4,16,18,21,23,26,28-nonaen-6-yl]phenyl]-N-methylsulfonyl-propanamide] | A (a TECC value less than 3 is marked “A”) | A (an ΔTagg value less than or equal to 5 °C is marked “A”)
[2H]C([2H])([2H])n1nc2nc1-c1cc(ccc1F)Oc1c(F)cc3[nH]ccc3c1CCC(=O)N(C)CC(C)(C)CCCC2(C)c1cccc(CCC(=O)NS(C)(=O)=O)c1 (single isomer, unassigned) [Compound 79B, 3-[3-[23,29-difluoro-6,10,10,12-tetramethyl-13-oxo-3-(trideuteriomethyl)-25-oxa-3,4,12,20,31-pentazapentacyclo[24.3.1.12,5.016,24.017,21]hentriaconta-1(30),2(31),4,16,18,21,23,26,28-nonaen-6-yl]phenyl]-N-methylsulfonyl-propanamide] | C (a value between 6 and 20 is marked “C”) | C (a value greater than 10 °C and less than or equal to 25 °C is marked “C”)
CC1(C)CCCCC(C)(c2cccc(CCC(=O)O)c2)c2cnc([nH]2)-c2cc(ccc2F)Oc2c(F)cc3[nH]ccc3c2COC(=O)N1 (single isomer, unassigned) [Compound 93A, 3-[3-(23,29-difluoro-6,11,11-trimethyl-13-oxo-14,25-dioxa-3,12,20,31-tetrazapentacyclo[24.3.1.12,5.016,24.017,21]hentriaconta-1(30),2,4,16,18,21,23,26,28-nonaen-6-yl)phenyl]propanoic acid] | B (a value between 3 and 6 is marked “B”) | A (an ΔTagg value less than or equal to 5 °C is marked “A”)
CC1(C)CCCCC(C)(c2cccc(CCC(=O)O)c2)c2cnc([nH]2)-c2cc(ccc2F)Oc2c(F)cc3[nH]ccc3c2COC(=O)N1 (single isomer, unassigned) [Compound 93B, 3-[3-(23,29-difluoro-6,11,11-trimethyl-13-oxo-14,25-dioxa-3,12,20,31-tetrazapentacyclo[24.3.1.12,5.016,24.017,21]hentriaconta-1(30),2,4,16,18,21,23,26,28-nonaen-6-yl)phenyl]propanoic acid] | A (a TECC value less than 3 is marked “A”) | C (a value greater than 10 °C and less than or equal to 25 °C is marked “C”)
CC1(C)CCCC(c2cccc(CCC(=O)O)c2)n2ccc(n2)-c2cc(ccc2F)Oc2c(F)cc3[nH]ccc3c2CCOC(=O)N1 (single isomer, unassigned) [Compound 95A, 3-[3-(23,29-difluoro-10,10-dimethyl-12-oxo-13,25-dioxa-5,11,20,31-tetrazapentacyclo-[24.3.1.12,5.016,24.017,21]hentriaconta-1(30),2(31),3,16(24),17(21),18,22,26,28-nonaen-6-yl)phenyl]propanoic acid] | B (a value between 3 and 6 is marked “B”) | B (a value above 5 °C and less than or equal to 10 °C is marked “B”)
CC1(C)CCCC(c2cccc(CCC(=O)O)c2)n2ccc(n2)-c2cc(ccc2F)Oc2c(F)cc3[nH]ccc3c2CCOC(=O)N1 (single isomer, unassigned) [Compound 95B, 3-[3-(23,29-difluoro-10,10-dimethyl-12-oxo-13,25-dioxa-5,11,20,31-tetrazapentacyclo-[24.3.1.12,5.016,24.017,21]hentriaconta-1(30),2(31),3,16(24),17(21),18,22,26,28-nonaen-6-yl)phenyl]propanoic acid] | B (a value between 3 and 6 is marked “B”) | B (a value above 5 °C and less than or equal to 10 °C is marked “B”)
